In patent US20130102595A1 (Curis, Inc., priority 2011, published 2013) one finds IC50 and melting point data, which are given here for 17 compounds.

Data set [1] concerns HDACs (HeLa cell nuclear extracts). Kind of data set: HDAC enzymatic activity, Biomol Color de Lys system. Type of data set: biochemical. The following applies: 1 hour, 25° C. In a few lines:
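IC50 from sigmoidal fit of developer-terminated fluorescence (ex 350-380/em 440-460 nm). Reaction: 1 h at room temperature (25 °C), HeLa nuclear extract as HDAC source, artificial substrate, buffer of 50 mM Tris/Cl pH 8.0 with 137 mM NaCl, 2.7 mM KCl and 1 mM MgCl2.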

The next data set addresses T1, PI3Kα (p110α/p85α) (Homo sapiens, UniProt P42336).
T1 construct: GST (N); made in house; host or cells: Baculovirus-infected Sf9 cells
Kind of data set: PI3Kα ADP-Glo assay. Conditions: 20 μM PIP2, 10 μM ATP, 30 minutes. The data set is classed as biochemical. The method, boiled down: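 Luminescent ADP-Glo detection, after depletion of residual ATP, quantified ADP made by PI3Kα phosphorylating 20 μM PIP2 at 10 μM ATP. The kinase step ran 30 min at room temperature in HEPES pH 7.4 with MgCl2, DTT and orthovanadate, using baculovirus/Sf9-expressed full-length p110α/p85α complex.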

Molecules are shown by their SMILES. Bounds are passed on as bounds.

T1 sequence (P42336 whole entry): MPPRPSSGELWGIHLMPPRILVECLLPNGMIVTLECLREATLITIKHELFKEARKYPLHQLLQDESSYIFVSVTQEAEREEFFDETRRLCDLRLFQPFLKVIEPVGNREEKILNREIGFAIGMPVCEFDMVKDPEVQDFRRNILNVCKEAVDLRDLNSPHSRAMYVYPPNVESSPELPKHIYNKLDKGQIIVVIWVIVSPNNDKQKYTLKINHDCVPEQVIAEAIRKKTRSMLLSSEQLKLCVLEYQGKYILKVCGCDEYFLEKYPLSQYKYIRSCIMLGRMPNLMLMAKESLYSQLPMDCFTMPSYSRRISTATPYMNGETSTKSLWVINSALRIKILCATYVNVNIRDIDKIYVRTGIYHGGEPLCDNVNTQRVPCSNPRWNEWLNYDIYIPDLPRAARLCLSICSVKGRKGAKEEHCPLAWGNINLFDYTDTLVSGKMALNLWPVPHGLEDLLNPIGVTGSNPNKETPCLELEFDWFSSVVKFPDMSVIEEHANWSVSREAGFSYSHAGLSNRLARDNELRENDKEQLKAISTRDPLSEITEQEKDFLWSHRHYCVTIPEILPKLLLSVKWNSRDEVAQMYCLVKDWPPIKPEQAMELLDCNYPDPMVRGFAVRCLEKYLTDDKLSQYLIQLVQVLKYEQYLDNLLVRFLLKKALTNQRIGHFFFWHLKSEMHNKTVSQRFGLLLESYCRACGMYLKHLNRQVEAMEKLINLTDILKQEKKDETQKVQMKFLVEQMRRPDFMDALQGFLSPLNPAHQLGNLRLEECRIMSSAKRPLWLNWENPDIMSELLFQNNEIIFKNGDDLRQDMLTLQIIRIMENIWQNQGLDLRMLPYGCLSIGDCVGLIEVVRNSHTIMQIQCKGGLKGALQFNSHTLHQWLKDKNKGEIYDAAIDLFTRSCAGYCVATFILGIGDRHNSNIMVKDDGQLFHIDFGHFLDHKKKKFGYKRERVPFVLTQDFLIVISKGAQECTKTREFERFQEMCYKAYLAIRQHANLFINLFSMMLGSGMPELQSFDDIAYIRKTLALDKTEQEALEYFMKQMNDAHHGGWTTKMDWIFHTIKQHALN
T1 sequence (P27986 whole entry partner): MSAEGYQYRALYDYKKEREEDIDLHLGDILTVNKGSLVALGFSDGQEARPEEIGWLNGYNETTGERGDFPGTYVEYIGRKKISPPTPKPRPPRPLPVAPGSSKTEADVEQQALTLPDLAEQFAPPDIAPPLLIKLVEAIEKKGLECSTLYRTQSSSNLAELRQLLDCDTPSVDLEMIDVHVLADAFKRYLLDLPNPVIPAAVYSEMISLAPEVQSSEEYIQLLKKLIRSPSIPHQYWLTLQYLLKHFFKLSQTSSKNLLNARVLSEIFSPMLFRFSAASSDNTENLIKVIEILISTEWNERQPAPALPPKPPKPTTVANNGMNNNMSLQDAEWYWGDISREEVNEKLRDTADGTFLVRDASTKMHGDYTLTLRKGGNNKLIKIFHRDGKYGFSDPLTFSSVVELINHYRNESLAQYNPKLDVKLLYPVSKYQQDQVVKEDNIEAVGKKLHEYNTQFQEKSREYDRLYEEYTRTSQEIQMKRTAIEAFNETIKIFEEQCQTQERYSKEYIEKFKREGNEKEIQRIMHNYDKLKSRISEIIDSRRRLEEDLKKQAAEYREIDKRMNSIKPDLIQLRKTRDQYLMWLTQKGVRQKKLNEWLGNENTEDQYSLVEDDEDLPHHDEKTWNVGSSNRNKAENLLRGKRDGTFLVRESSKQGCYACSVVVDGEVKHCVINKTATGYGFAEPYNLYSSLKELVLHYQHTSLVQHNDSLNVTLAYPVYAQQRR

Usually IC50 stands for the concentration that gives 50% inhibition. The term melting point denotes the temperature, or range, at which the solid turns liquid. For `CN(Cc1cc2nc(-c3cn[nH]c3)nc(N3CCOCC3)c2s1)c1ncc(C(=O)NO)cn1` [Compound 196, N-hydroxy-2-(methyl((4-morpholino-2-(1H-pyrazol-4-yl)thieno[3,2-d]pyrimidin-6-yl)methyl)amino)pyrimidine-5-carboxamide], the melting point lay in the range of 214 to 217 °C. Moreover, the IC50 in data set [1] was under 100 nM. This compound also registered a half-inhibitory concentration (IC50) at PI3Kα (p110α/p85α) of 100 to 1000 nM.

Turning to `CN(Cc1cc2nc(-c3cccc4[nH]ncc34)nc(Nc3ccccn3)c2s1)c1ncc(C(=O)NO)cn1` [Compound 168, 2-(((2-(1H-indazol-4-yl)-4-(pyridin-2-ylamino)thieno[3,2-d]pyrimidin-6-yl)methyl)(methyl)amino)-N-hydroxypyrimidine-5-carboxamide], the melting point fell in the range of 200 to 203 °C. The IC50 in data set [1] is under 100 nM. For the same compound, the IC50 against PI3Kα (p110α/p85α) was in the range of 1000 to 10000 nM.

`Nc1ncc(-c2nc(N3CCOCC3)c3sc(NCCCCCCC(=O)NO)cc3n2)cn1` [Compound 234, 7-[2-(2-Amino-pyrimidin-5-yl)-4-morpholin-4-yl-thieno[3,2-d]pyrimidin-6-ylamino]-heptanoic acid hydroxyamide]: the melting point lay within 235 to 240 °C. This compound registered an IC50 in data set [1] of under 100 nM. The same compound had an IC50 against PI3Kα (p110α/p85α) of under 100 nM.

For the compound `CNC(=O)c1cccc(-c2nc(N3CCOCC3)c3sc(CN(C)c4ncc(C(=O)NO)cn4)cc3n2)c1` [Compound 144, N-hydroxy-2-(methyl((2-(3-(methylcarbamoyl)phenyl)-4-morpholinothieno[3,2-d]pyrimidin-6-yl)methyl)amino)pyrimidine-5-carboxamide], the melting point fell in the range of 215 to 217 °C. This compound displayed an IC50 in data set [1] of under 100 nM. The IC50 against PI3Kα (p110α/p85α) fell in the range of 1000 to 10000 nM.

In the case of `CN(Cc1cc2nc(-c3ccc(S(C)(=O)=O)cc3)nc(N3CCOCC3)c2s1)c1ncc(C(=O)NO)cn1` [Compound 149, N-hydroxy-2-(methyl((2-(4-(methylsulfonyl)phenyl)-4-morpholinothieno[3,2-d]pyrimidin-6-yl)methyl)amino)pyrimidine-5-carboxamide], the melting point lay in the range of 206 to 208 °C. This compound also displayed an IC50 in data set [1] of under 100 nM. The compound also displayed an IC50 against PI3Kα (p110α/p85α) of over 10000 nM.

As to `Cc1ncc(-c2nc(N3CCOCC3)c3sc(NCCCCC(=O)NO)cc3n2)cn1` [Compound 229, N-Hydroxy-5-(2-(2-methylpyrimidin-5-yl)-4-morpholinothieno[3,2-d]pyrimidin-6-ylamino)pentanamide], the melting point lay within 248 to 252 °C. The compound also registered an IC50 in data set [1] of under 100 nM. In addition, the IC50 against PI3Kα (p110α/p85α) is under 100 nM.

In the case of `O=C(CCCNCc1cc2nc(-c3cccc4[nH]ncc34)nc(N3CCOCC3)c2s1)NO` [Compound 41, 4-((2-(1H-indazol-4-yl)-4-morpholinothieno[3,2-d]pyrimidin-6-yl)methylamino)-N-hydroxybutanamide], the melting point fell in the range of 149 to 152 °C. The compound further displayed an IC50 in data set [1] of under 100 nM. This compound came in with an IC50 against PI3Kα (p110α/p85α) of 100 to 1000 nM.

As to `CN(Cc1cc2nc(-c3ccc(CN)cc3)nc(N3CCOCC3)c2s1)c1ncc(C(=O)NO)cn1` [Compound 135, 2-(((2-(4-(aminomethyl)phenyl)-4-morpholinothieno[3,2-d]pyrimidin-6-yl)methyl)(methyl)amino)-N-hydroxypyrimidine-5-carboxamide], the melting point lay in the range of 184 to 186 °C. Also, the IC50 in data set [1] is under 100 nM. Besides, at PI3Kα (p110α/p85α), the IC50 is 100 to 1000 nM.

`CN(C)c1ccc(-c2nc(N3CCOCC3)c3sc(CN(C)c4ncc(C(=O)NO)cn4)cc3n2)cc1` [Compound 152, 2-(((2-(4-(dimethylamino)phenyl)-4-morpholinothieno[3,2-d]pyrimidin-6-yl)methyl)(methyl)amino)-N-hydroxypyrimidine-5-carboxamide] had a melting point of 208 to 210 °C. The compound also had an IC50 in data set [1] of under 100 nM. Moreover, the IC50 on PI3Kα (p110α/p85α) is over 10000 nM.

Turning to `COc1ncc(-c2nc(N3CCOCC3)c3sc(C(C)N(C)c4ncc(C(=O)NO)cn4)cc3n2)cn1` (stereo not drawn) [Compound 262, N-Hydroxy-2-((1-(2-(2-methoxypyrimidin-5-yl)-4-morpholinothieno[3,2-d]pyrimidin-6-yl)ethyl)(methyl)amino)pyrimidine-5-carboxamide], the melting point fell in the range of 210 to 215 °C. For the same compound, the IC50 in data set [1] is under 100 nM. Further, the IC50 against PI3Kα (p110α/p85α) was under 100 nM.

As for `Nc1ncc(-c2nc(N3CCOCC3)c3sc(NS(=O)(=O)c4ccc(/C=C/C(=O)NO)cc4)cc3n2)cn1` [Compound 217, (E)-3-(4-(N-(2-(2-aminopyrimidin-5-yl)-4-morpholinothieno[3,2-d]pyrimidin-6-yl)sulfamoyl)phenyl)-N-hydroxyacrylamide], the melting point was over 300 °C. In data set [1], this compound gave an IC50 of under 100 nM. At PI3Kα (p110α/p85α), the IC50 is under 100 nM.

`CC(C)CN(Cc1cc2nc(-c3cccc4[nH]ncc34)nc(N3CCOCC3)c2s1)c1ncc(C(=O)NO)cn1` [Compound 93, 2-(((2-(1H-indazol-4-yl)-4-morpholinothieno[3,2-d]pyrimidin-6-yl)methyl)(isobutyl)amino)-N-hydroxypyrimidine-5-carboxamide] had a melting point of 196 to 198 °C. Moreover, in data set [1], the IC50 lay in the range of 100 to 1000 nM. The same compound registered an IC50 on PI3Kα (p110α/p85α) of 100 to 1000 nM.

For `CC(=O)Nc1cccc(-c2nc(N3CCOCC3)c3sc(CN(C)c4ncc(C(=O)NO)cn4)cc3n2)c1` [Compound 107, 2-(((2-(3-acetamidophenyl)-4-morpholinothieno[3,2-d]pyrimidin-6-yl)methyl)(methyl)amino)-N-hydroxypyrimidine-5-carboxamide], the melting point lay within 183 to 185 °C. The same compound returned an IC50 in data set [1] of under 100 nM. The IC50 on PI3Kα (p110α/p85α) lay in the range of 1000 to 10000 nM.

Regarding `CCNc1ccc(-c2nc(N3CCOCC3)c3sc(CN(C)c4ncc(C(=O)NO)cn4)cc3n2)cc1` [Compound 153, 2-(((2-(4-(ethylamino)phenyl)-4-morpholinothieno[3,2-d]pyrimidin-6-yl)methyl)(methyl)amino)-N-hydroxypyrimidine-5-carboxamide], the melting point lay within 185 to 187 °C. This compound also came in with an IC50 in data set [1] of under 100 nM. At PI3Kα (p110α/p85α), this compound registered an IC50 of over 10000 nM.

With `CN(Cc1cc2nc(-c3ccc(C(F)(F)F)cc3)nc(N3CCOCC3)c2s1)c1ncc(C(=O)NO)cn1` [Compound 202, N-hydroxy-2-(methyl((4-morpholino-2-(4-(trifluoromethyl)phenyl)thieno[3,2-d]pyrimidin-6-yl)methyl)amino)pyrimidine-5-carboxamide], the melting point is 222 to 223 °C. Moreover, in data set [1], the IC50 was under 100 nM. This compound came in with an IC50 at PI3Kα (p110α/p85α) of 100 to 1000 nM.

Regarding `CN(Cc1cc2nc(-c3cccc4[nH]ncc34)nc(N3CCOCC3)c2s1)c1ccc(/C=C/C(=O)NO)cc1` [Compound 81, (E)-3-(4-(((2-(1H-indazol-4-yl)-4-morpholinothieno[3,2-d]pyrimidin-6-yl)methyl)(methyl)amino)phenyl)-N-hydroxyacrylamide], the melting point lay within 188 to 190 °C. Moreover, the IC50 in data set [1] fell in the range of 1000 to 10000 nM. This compound also gave a concentration for half-maximal inhibition (IC50) on PI3Kα (p110α/p85α) of under 100 nM.

Regarding `O=C(CCCCCN1CCN(Cc2cc3nc(-c4cccc5[nH]ncc45)nc(N4CCOCC4)c3s2)CC1)NO` [Compound 12], the melting point lay within 123 to 124 °C. For the same compound, the IC50 in data set [1] is 100 to 1000 nM. The same compound showed an IC50 against PI3Kα (p110α/p85α) of under 100 nM.
